Results taken from patent publication US8303962B2, “Antibacterial and antifungal peptides” (C3 Jian, Inc., priority 2009, dated 2012).
Converted amounts (≈) assume the structure as drawn. Peptide text beside a SMILES is read from it.

These compounds were tested on T. rubrum (assay: not given). Conditions: not given.
Assay type: cell-based, Trichophyton rubrum
Experimental: (§1) In certain embodiments the MIC assays are performed as described herein in the Examples. For each organism, the media and growth conditions utilized is detailed in Table 8.
(§2) In certain embodiments the MIC assays are performed as follows: For each organism, the media and growth conditions utilized is detailed in Table 8.

| Compound | MIC |
| --- | --- |
| CC(C)[C@H](NC(=O)[C@H](CCCCN)NC(=O)[C@H](Cc1c[nH]c2ccccc12)NC(=O)CNC(=O)[C@@H](NC(=O)[C@H](CC(=O)O)NC(=O)[C@H](CO)NC(=O)[C@H](Cc1c[nH]cn1)NC(=O)CNC(=O)[C@@H]1CCCN1C(=O)[C@@H](NC(=O)[C@H](CCCNC(=N)N)NC(=O)[C@H](CO)NC(=O)[C@@H](N)Cc1c[nH]c2ccccc12)C(C)C)[C@@H](C)O)C(=O)N[C@@H](Cc1c[nH]c2ccccc12)C(=O)N[C@@H](Cc1c[nH]cn1)C(=O)N[C@@H](CCCNC(=N)N)C(=O)N[C@@H](Cc1c[nH]c2ccccc12)C(=O)O [PF-547] (H-WSRVPGHSDTGWKVWHRW-OH; N-terminus and C-terminus assumed) | 25 µM (≈ 56.9 µg/mL) |

The compounds below were run on B. subtilis (assay: not given). Conditions: not given.
Assay type: cell-based, Bacillus subtilis
Experimental: as §1, §2

| Compound | MIC |
| --- | --- |
| CC(C)[C@H](NC(=O)[C@H](CCCCN)NC(=O)[C@H](Cc1c[nH]c2ccccc12)NC(=O)CNC(=O)[C@@H](NC(=O)[C@H](CC(=O)O)NC(=O)[C@H](CO)NC(=O)[C@H](Cc1c[nH]cn1)NC(=O)CNC(=O)[C@@H]1CCCN1C(=O)[C@@H](NC(=O)[C@H](CCCNC(=N)N)NC(=O)[C@H](CO)NC(=O)[C@@H](N)Cc1c[nH]c2ccccc12)C(C)C)[C@@H](C)O)C(=O)N[C@@H](Cc1c[nH]c2ccccc12)C(=O)N[C@@H](Cc1c[nH]cn1)C(=O)N[C@@H](CCCNC(=N)N)C(=O)N[C@@H](Cc1c[nH]c2ccccc12)C(=O)O [PF-547] (H-WSRVPGHSDTGWKVWHRW-OH; N-terminus and C-terminus assumed) | 25 µM (≈ 56.9 µg/mL) |

The compounds below were run on Candida albicans (assay: Peptide binding to Candida albicans). Conditions: tested at 3.13, 6.25, 12.5 and 25.0 μM in 1× PBS or 20 mM HEPES, 150 mM NaCl, 1 mM MgCl2, 0.1% CTAB.
Experimental: The peptides in Table 6 were tested for binding efficiency at 3.13, 6.25, 12.5 and 25.0 μM concentrations in 1× phosphate-buffered saline or 20 mM HEPES (4-(2-hydroxyethyl)-1-piperazineethanesulfonic acid), 150 mM sodium chloride, 1 mM magnesium chloride and 0.1% CTAB.

| Compound | Target(s): form of Candida albicans bound |
| --- | --- |
| CC[C@H](C)[C@H](NC(=O)[C@H](C)NC(=O)[C@@H]1CCCN1C(=O)[C@H](Cc1ccccc1)NC(=O)[C@@H]1CCCN1C(=O)[C@H](CC(C)C)NC(=O)[C@@H](N)C(C)C)C(=O)N1CCC[C@H]1C(=O)N[C@@H](CC(C)C)C(=O)N[C@@H](CO)C(=O)N[C@@H](CCCNC(=N)N)C(=O)N[C@@H](CCCNC(=N)N)C(=O)N[C@@H](CCCNC(=N)N)C(=O)N[C@@H](C)C(=O)N[C@@H](CS)C(=O)N[C@H](C(=O)N[C@@H](C)C(=O)N[C@@H](C)C(=O)N1CCC[C@H]1C(=O)N[C@@H](CCCNC(=N)N)C(=O)N1CCC[C@H]1C(=O)N[C@@H](CCCNC(=N)N)C(=O)N[C@@H](CO)C(=O)N[C@@H](CCCNC(=N)N)C(=O)N[C@@H](CCC(N)=O)C(=O)N[C@@H](CCCNC(=N)N)C(=O)N[C@@H](C)C(=O)N[C@@H](CO)C(=O)O)C(C)C [PF-168] (H-VLPFPAIPLSRRRACVAAPRPRSRQRAS-OH; N-terminus and C-terminus assumed) | yeast cells |
| CC[C@H](C)[C@H](NC(=O)[C@H](CC(N)=O)NC(=O)[C@@H](NC(=O)[C@H](Cc1ccccc1)NC(=O)[C@H](CCC(=O)O)NC(=O)CNC(=O)[C@H](CCC(N)=O)NC(=O)[C@H](Cc1ccccc1)NC(=O)[C@@H](N)CCCCN)[C@@H](C)O)C(=O)NCC(=O)N[C@@H](CCC(N)=O)C(=O)N[C@@H](CO)C(=O)N[C@@H](Cc1ccc(O)cc1)C(=O)N[C@H](C(=O)N[C@H](C(=O)N[C@@H](CO)C(=O)N[C@@H](C)C(=O)N[C@@H](CO)C(=O)N[C@@H](Cc1c[nH]cn1)C(=O)N[C@@H](CCSC)C(=O)N[C@@H](CO)C(=O)N[C@H](C(=O)N[C@@H](CO)C(=O)N[C@@H](CC(C)C)C(=O)N[C@@H](CC(N)=O)C(=O)N[C@H](C(=O)NCC(=O)N[C@@H](CCCCN)C(=O)O)[C@@H](C)O)[C@@H](C)O)C(C)C)[C@@H](C)CC [PF-583] (H-KFQGEFTNIGQSYIVSASHMSTSLNTGK-OH; N-terminus and C-terminus assumed) | hyphae |
| AIEGVIKKGACFKLLRHEMF (Antimicrobial peptide and/or targeting peptide) [PF-167] | yeast cells |
| DLRKAK (Antimicrobial peptide and/or targeting peptide) [PF-024] | hyphae |
| EILNNNQVIKELTMKYKTQFESNLGGWTARARR (Antimicrobial peptide and/or targeting peptide) [PF-580] | hyphae |
| EVYSSPTNNVAITVQNN (Antimicrobial peptide and/or targeting peptide) [PF-178] | hyphae |
| GGTKEIVYQRG (Antimicrobial peptide and/or targeting peptide) [1T-68] | yeast cells |
| GVGIGFIMMGVVGYAVKLVHIPIRYLIV (Antimicrobial peptide and/or targeting peptide) [PF-770] | hyphae |
| HARAAVGVAELPRGAAVEVELIAAVRP (Antimicrobial peptide and/or targeting peptide) [1T-65] | hyphae |
| HSSHL (Antimicrobial peptide and/or targeting peptide) [PF-060] | hyphae |
| KLRSASKKSLQEKSCGIMPEKPAG (Antimicrobial peptide and/or targeting peptide) [PF-206] | hyphae |
| LVRLA (Antimicrobial peptide and/or targeting peptide) [PF-636] | hyphae |
| MIHLTKQNTMEALHFIKQFYDMFFILNFNV (Antimicrobial peptide and/or targeting peptide) [PF-040] | hyphae |
| MPKARPVNHNKKKSKITIKSNFTLFYMFNP (Antimicrobial peptide and/or targeting peptide) [PF-634] | hyphae |
| NILFGIIGFVVAMTAAVIVTAISIAK (Antimicrobial peptide and/or targeting peptide) [PF-543] | hyphae |
| NRQAQGERAHGEQQG (Antimicrobial peptide and/or targeting peptide) [1T-70] | yeast cells |
| RFFNFEIKKSTKVDYVFAHVDLSDV (Antimicrobial peptide and/or targeting peptide) [PF-051] | hyphae |
| RLARGRPTNLCGRRG (Antimicrobial peptide and/or targeting peptide) [PF-170] | yeast cells |
| RLTSNQFLTRITPFVFAQH (Antimicrobial peptide and/or targeting peptide) [PF-176] | yeast cells |
| SKFELVNYASGCSCGADCKCASETECKCASKK (Antimicrobial peptide and/or targeting peptide) [PF-761] | hyphae |
| VVRRFQGM (Antimicrobial peptide and/or targeting peptide) [PF-141] | hyphae |
| VYRHLRFIDGKLVEIRLERK (Antimicrobial peptide and/or targeting peptide) [1T-36] | hyphae |
